Assay results reported in US20260083751A1, “ALLOSTERIC MODULATORS OF ANDROGEN RECEPTOR COACTIVATOR RECRUITMENT FOR CRPC THERAPY” (University of Pittsburgh – Of the Commonwealth System of …, priority 2022, published 2026).
“Also recorded” adds a separate entry of the source. Where two headings read alike, the source gives them in different places.

What was measured:
Assay type in all cases: cell-based
[1] = tested on: UBE2C promoter-driven transcription in PC3-AR-V7-GFP cells; assay: UBE2C promoter driven luciferase reporter assay in PC3-AR-V7-GFP cells
Procedure: UBE2C Promoter Driven Luciferase Reporter Assay in PC3-AR-V7-GFP Cells: The pGL4.28-UBE2C 20bpX3 luciferase reporter plasmid (Xu et al., Cancer Res 2015, 75:3663-71) was provided by Dr. Yan Dong from Tulane University. FuGENE® HD transfection agent and the UBE2C-Luc plasmid (10 ng/well) were combined at a 3:1 (μL:μg) ratio, in Opti-MEM™ medium and incubated for 25 min at RT before being added to PC3-AR-V7-GFP cells that were suspended in RPMI 1640 (Gibco) media containing 1% L-glutamine (Invitrogen), and 10% fetal bovine serum (Gemini Bio-products). Bulk transfected PC3-AR-V7-GFP cells were seeded into white opaque 384-well assay plates (Greiner Bio-one, #781080) at a density of 3,000 cell per well in a volume of […] and incubated at 5% CO2, 37° C., and 95% humidity for 24 h. After 24 h, 10 μL of compounds were transferred to assay wells and the plates were returned to the incubator for an additional 24 h before 25 μL of BrightGlo® luciferase reagent (Promega) was added to the wells and the RLU's were captured on a SpectraMax® M5e plate reader (Molecular Devices LLC) as described previously (Ibid.).

AR = target: T1, AR (Homo sapiens, UniProt P10275, T878A); assay: AlphaScreen cellular thermal shift assay (CETSA) for AR target engagement in C4-2 cells; conditions: for AR thermal stability at 46° C., compound alone / DHT-induced (DHT-enhanced) AR thermal stability at 46° C.: C4-2 cells; for AR thermal stability at 46° C., compound alone: 20 μM where stated, 46° C. for 5 min; for DHT-induced (DHT-enhanced) AR thermal stability at 46° C.: compound 20 μM where stated, 10 nM DHT; for DHT-enhanced AR stability at 46° C.: 20 μM and 50 μM compound; for Right shift of the DHT EC50: 20 or 50 μM compound; for Maximum efficacy of DHT-enhanced AR thermal stabilization: S2-6 at 20 or 50 μM, S3-11 at 50 μM; for IC50: read-out: IC50, inhibition of DHT-induced AR stability at 46° C.
T1 construct: the amount of soluble AR protein in heat shocked C4-2 cell lysates; endogenous in cells; host or cells: C4-2 castration resistant prostate cancer cells
T1 sequence (P10275 1-920 T878A): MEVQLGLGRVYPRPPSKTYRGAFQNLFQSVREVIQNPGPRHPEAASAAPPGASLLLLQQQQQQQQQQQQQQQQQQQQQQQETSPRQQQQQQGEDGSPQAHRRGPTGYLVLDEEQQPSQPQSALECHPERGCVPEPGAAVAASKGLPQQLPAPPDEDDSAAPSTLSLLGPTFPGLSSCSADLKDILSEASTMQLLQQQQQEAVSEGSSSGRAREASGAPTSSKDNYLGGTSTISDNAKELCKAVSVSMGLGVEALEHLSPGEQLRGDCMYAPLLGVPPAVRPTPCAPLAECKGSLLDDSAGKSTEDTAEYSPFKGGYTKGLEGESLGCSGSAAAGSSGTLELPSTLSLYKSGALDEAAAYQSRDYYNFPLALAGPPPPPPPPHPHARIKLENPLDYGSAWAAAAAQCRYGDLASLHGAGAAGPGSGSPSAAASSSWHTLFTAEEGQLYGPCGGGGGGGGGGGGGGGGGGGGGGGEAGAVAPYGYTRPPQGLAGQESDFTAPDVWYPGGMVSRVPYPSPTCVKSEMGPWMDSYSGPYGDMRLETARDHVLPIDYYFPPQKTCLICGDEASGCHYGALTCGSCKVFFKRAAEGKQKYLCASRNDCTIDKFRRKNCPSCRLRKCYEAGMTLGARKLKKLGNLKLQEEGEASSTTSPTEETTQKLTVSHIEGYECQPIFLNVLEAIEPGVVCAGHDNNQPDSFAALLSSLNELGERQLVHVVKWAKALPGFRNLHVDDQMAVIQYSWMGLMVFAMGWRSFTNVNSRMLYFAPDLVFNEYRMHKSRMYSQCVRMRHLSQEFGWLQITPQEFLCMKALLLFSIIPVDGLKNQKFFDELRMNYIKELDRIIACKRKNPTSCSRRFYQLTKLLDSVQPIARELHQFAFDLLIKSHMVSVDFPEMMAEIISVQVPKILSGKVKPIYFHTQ
Procedure: Mouse anti-hAR (BD Biosciences, San Jose, CA) and rabbit anti-hAR (MilliporeSigma, Burlington, MA) were diluted 1:330 and 1:1000 fold respectively in PBS containing 0.5 mg/mL BSA and 4 μL of the combined diluted AR antibody pair were added to 4 μL of the cell lysate supernatant in a 384-well plate and incubated in the dark for 30 min at room temperature. To each well of the 384-well plate 4 μL of a combined solution of anti-mouse IgG Alpha Donor and anti-rabbit IgG (Fc specific) AlphaLISA® Acceptor beads (Perkin Elmer, Waltham, MA) suspended in 1× lysis buffer was added to yield a final donor and acceptor bead concentrations of 40 μg/mL and 10 μg/mL respectively.

[2] = tested on: DHT-induced AR-mediated PSA promoter-driven transcription in PC3-AR-FL-GFP cells; assay: PSA promoter-driven transcription in PC3-AR-FL-GFP cells
Procedure: Compounds 1-5 were assessed to determine whether each compound could block DHT-induced AR-TIF2 PPI (protein-protein interaction complex) formation and/or disrupt preformed DHT-induced AR-TIF2 PPIs. Additionally, the following activities were evaluated: • inhibition of DHT-induced AR-mediated PSA promoter-driven transcription in C4-2 CRPC cells; • inhibition of DHT-induced AR-LBD PPI interactions with TIF2 and SRC1 coactivators; • inhibition of DHT-induced AR-LBD PPI interactions with TIF2 Box III-LXXLL peptide; • inhibition of H^3-DHT binding to AR-LBD; • inhibition of DHT-induced AR-mediated PSA promoter-driven transcription in PC3-AR-FL-GFP cells; • inhibition of constitutive AR-V7-mediated PSA promoter-driven transcription in PC3-AR-V7 GFP cells; • inhibition of constitutive UBE2C promoter-driven transcription in PC3-AR-V7 GFP cells; • inhibition of growth in AR-negative prostate cancer (PCa) cell lines PC3 and DU145; and • inhibition of growth in AR-positive PCa cell lines LNCap, C4-2 (CRPC), and 22Rv1 (CRPC).

[3] = PC3-AR-V7-GFP cells, constitutive, read-out: Inhibition AR-V7 UBE2C-reporter IC50
[4] = 24 h, 24 h exposure, read-out: IC50 in UBE2C-Luc AR-V7 reporter assay (potency range in words)

IC50 [1, 3] [µM] | AR thermal stability at 46° C., compound alone (AR) | IC50 [2] [µM] | DHT-enhanced AR stability at 46° C. (AR) | Right shift of the DHT EC50 (AR) [fold] | AR thermal stability at 46° C., compound alone (AR; listed as 6) | DHT-induced (DHT-enhanced) AR thermal stability at 46° C. (AR; listed as 6) | IC50 (AR) [µM] | IC50 [1, 4] [µM] | IC50 (AR; b133, unit inferred) [µM] | SMILES | DHT-induced (DHT-enhanced) AR thermal stability at 46° C. (AR) | Maximum efficacy of DHT-enhanced AR thermal stabilization (AR)
12 | did not stabilize AR | ~50 | inhibited DHT-enhanced AR stability | ≥ 10 |  |  | 29.9 | 10 to 100 |  | Cc1c(-c2ccccc2F)[nH]c2ccc(CNC(=O)CCc3cn[nH]c3)cc12 [Compound S3-11] | blocked DHT-enhanced AR thermal stabilization; also recorded: inhibition of DHT-enhanced AR thermal stability | reduced the maximum efficacy of DHT
 |  | > 100 |  |  |  |  | 52.6 | 10 to 100 |  | Cc1c(-c2ccccc2F)[nH]c2ccc(CNC(=O)CCc3cnccn3)cc12 [Compound S3-12] |  | 
> 100 |  | > 100 |  |  |  |  |  |  |  | CC(=O)NCCC(=O)NCc1ccc2[nH]c(-c3ccccc3F)c(C)c2c1 [Compound S3-13] |  | 
 |  | ~50 |  |  |  |  |  | 10 to 100 | 9.46 | Cc1c(-c2ccccc2F)[nH]c2ccc(CNC(=O)c3ccc(CO)o3)cc12 [Compound S3-14] |  | 
 |  | ~50 | inhibited DHT-enhanced AR stability |  |  |  | 9.46 | 10 to 100 |  | Cc1cccc2c(-c3ccc(O)c(F)c3)c[nH]c12 [Compound S3-17] |  | 
> 100 |  | > 100 |  |  |  |  |  |  |  | CNC(=O)c1ccc(-c2c[nH]c3c(C)cccc23)cc1 [Compound S3-21] |  | 

The next lines start with the compound.

SMILES | IC50 [1, 3] [µM] | AR thermal stability at 46° C., compound alone (AR) | IC50 [2] [µM] | DHT-enhanced AR stability at 46° C. (AR) | Right shift of the DHT EC50 (AR) [fold] | AR thermal stability at 46° C., compound alone (AR; listed as 6) | DHT-induced (DHT-enhanced) AR thermal stability at 46° C. (AR; listed as 6) | IC50 (AR) [µM] | IC50 [1, 4] [µM] | IC50 (AR; b133, unit inferred) [µM] | DHT-induced (DHT-enhanced) AR thermal stability at 46° C. (AR) | Maximum efficacy of DHT-enhanced AR thermal stabilization (AR)
Cc1ccccc1-c1cc(O)c2c(c1)CN(c1nc(C(N)=O)cs1)CCO2 [Compound S1-1] | < 35 | did not stabilize AR | < 44 |  |  |  |  |  |  |  | blocked DHT-enhanced AR thermal stabilization; also recorded: inhibition of DHT-enhanced AR thermal stability | 
Cc1nc(N)cc(N2CCOc3c(O)cc(-c4ccccc4C)cc3C2)n1 [Compound S1-2] | 8.3 |  | < 44 |  |  |  |  |  |  |  |  | 
Cc1nsc(NC(=O)N2CCC(Sc3ccccc3C)CC2)n1 [Compound S2-6] | ~15 | did not stabilize AR | ~28 | inhibited DHT-enhanced AR stability | > 10 | did not enhance AR stability | inhibited DHT-induced AR stability | 4.1 |  |  | blocked DHT-enhanced AR thermal stabilization; also recorded: inhibition of DHT-enhanced AR thermal stability | reduced the maximum efficacy of DHT-enhanced AR thermal stabilization
Cc1c(-c2ccc(F)cc2)[nH]c2ccc(CNC(=O)c3ccc(CO)o3)cc12 [Compound S3-15] |  |  | ~10 |  |  |  |  | 86.1 | 10 to 100 |  |  | 
